Source: ChEMBL document CHEMBL1130608, “Synthesis and anticancer evaluation of certain gamma-aryloxymethyl-alpha-methylene-gamma-phenyl-gamma-butyrolactones” (1998)

What was measured:
LOX IMVI [1] = experiment: In vitro anticancer activity against LOX IMVI melanoma cancer cell line; assay type: functional; details: Homo sapiens
IGROV-1 = experiment: In vitro anticancer activity against IGROV1 ovarian cancer cell line; assay type: functional; details: Homo sapiens
SW-620 = experiment: In vitro anticancer activity against SW-620 colon cancer cell line; assay type: functional; details: Homo sapiens
MDA-MB-435 = experiment: In vitro anticancer activity against MDA-MB-435 breast cancer cell line; assay type: functional; details: Homo sapiens
SR [2] = experiment: In vitro anticancer activity against SR leukemia cancer cell line; Most sensitive cell; assay type: functional; details: Homo sapiens
HOP-62 [3] = experiment: In vitro anticancer activity against HOP-62 non-small cell lung cancer cell line; assay type: functional; details: Homo sapiens
SK-OV-3 = experiment: In vitro anticancer activity against SK-OV-3 ovarian cancer cell line; assay type: functional; details: Homo sapiens
Malme-3M = experiment: In vitro anticancer activity against MALME-3M melanoma cancer cell line; assay type: functional; details: Homo sapiens
COLO 205 = experiment: In vitro anticancer activity against COLO 205 colon cancer cell line; assay type: functional; details: Homo sapiens
SNB-19 [4] = experiment: In vitro anticancer activity against SNB-19 CNS cancer cell line; assay type: functional; details: Homo sapiens
NCI-H322M [5] = experiment: In vitro anticancer activity against NCI-H322M non-small cell lung cancer cell line; Least sensitive cell; assay type: functional; details: Homo sapiens
ACHN = experiment: In vitro anticancer activity against ACHN renal cancer cell line; assay type: functional; details: Homo sapiens
DU-145 = experiment: In vitro anticancer activity against DU-145 prostate cancer cell line; assay type: functional; details: Homo sapiens
RPMI-8226 [6] = experiment: In vitro anticancer activity against RPMI-8226 leukemia cancer cell line; assay type: functional; details: Homo sapiens
U-251 [7] = experiment: In vitro anticancer activity against U-251 CNS cancer cell line; assay type: functional; details: Homo sapiens
TK-10 = experiment: In vitro anticancer activity against TK-10 renal cancer cell line; assay type: functional; details: Homo sapiens
Hs-578T = experiment: In vitro anticancer activity against Hs 578.T breast cancer cell line; assay type: functional; details: Homo sapiens
PC-3 = experiment: In vitro anticancer activity against PC-3 prostate cancer cell line; assay type: functional; details: Homo sapiens
[8] = Ratio of the least sensitive cell to the most sensitive cell; assay type: functional
LOX IMVI [9] = experiment: In vitro anticancer activity against LOX IMVI melanoma cancer cell line; Most sensitive cell; assay type: functional; details: Homo sapiens
U-251 [10] = experiment: In vitro anticancer activity against U-251 CNS cancer cell line; Least sensitive cell; assay type: functional; details: Homo sapiens
RPMI-8226 [11] = experiment: In vitro anticancer activity against RPMI-8226 Leukemia cancer cell line; assay type: functional; details: Homo sapiens
NCI-H322M [12] = experiment: In vitro anticancer activity against NCI-H322M non-small cell lung cancer cell line; assay type: functional; details: Homo sapiens
SR [13] = experiment: In vitro anticancer activity against SR Leukemia cancer cell line; assay type: functional; details: Homo sapiens
HOP-62 [14] = experiment: In vitro anticancer activity against HOP-62 non-smallcell lung cancer cell line; assay type: functional; details: Homo sapiens
[15] = test system: Panel leukemia (Carcinoma cell lines); experiment: Compound was evaluated for in vitro anticancer activity against leukemia cell lines; assay type: functional, cell-based
RPMI-8226 [16] = experiment: In vitro anticancer activity against RPMI-8226 leukemia cancer cell line; Most sensitive cell; assay type: functional; details: Homo sapiens
SR [17] = experiment: In vitro anticancer activity against SR leukemia cancer cell line; assay type: functional; details: Homo sapiens
SNB-19 [18] = experiment: In vitro anticancer activity against SNB-19 CNS cancer cell line; Leaset sensitive cell; assay type: functional; details: Homo sapiens
RPMI-8226 [19] = experiment: In vitro anticancer activity against RPMI-8226 Leukemia cancer cell line; Most sensitive cell; assay type: functional; details: Homo sapiens
SNB-19 [20] = experiment: In vitro anticancer activity against SNB-19 CNS cancer cell line; Least sensitive cell; assay type: functional; details: Homo sapiens
HOP-62 [21] = experiment: In vitro anticancer activity against HOP-62 non-smallcell lung cancer cell line; Least sensitive cell; assay type: functional; details: Homo sapiens

Row | Molecule | GI50 (SW-620) | GI50 (MDA-MB-435) | GI50 (SK-OV-3) | GI50 (COLO 205) | GI50 (ACHN) | GI50 (DU-145) | GI50 (U-251 [7]) | GI50 (PC-3) | GI50 (NCI-H322M [12]) | GI50 (LOX IMVI [1]) | GI50 (IGROV-1) | GI50 (Malme-3M) | GI50 (SNB-19 [4]) | GI50 (TK-10) | GI50 (Hs-578T) | Ratio [8] | GI50 (SR [13]) | GI50 (HOP-62 [14]) | other results
1 | C=C1CC(COc2cccc3ccccc23)(c2ccccc2)OC1=O (stereo not given) | 1550 nM | 1740 nM | 7410 nM | 3160 nM | 4370 nM | 11200 nM | 3550 nM | 4070 nM |  | 1350 nM | 1620 nM | 2880 nM | 7760 nM | 10500 nM | 6920 nM | 1.84 |  |  | GI50 (SR [2]): 229 nM; GI50 (HOP-62 [3]): 15500 nM; GI50 (NCI-H322M [5]): 15800 nM; GI50 (RPMI-8226 [6]): 2290 nM
2 | C=C1CC(COc2ccccc2)(c2ccccc2)OC1=O (stereo not given) | 1950 nM | 7410 nM |  | 1740 nM | 1740 nM | 15100 nM |  | 2140 nM | 15500 nM |  | 14100 nM | 10500 nM | 11200 nM | 3160 nM | 11700 nM | 1.06 | 3240 nM | 14800 nM | GI50 (LOX IMVI [9]): 1510 nM; GI50 (U-251 [10]): 17400 nM; GI50 (RPMI-8226 [11]): 1950 nM
3 | CISPLATIN |  |  |  |  |  |  |  |  |  |  |  |  |  |  |  |  |  |  | GI50 [15]: 4470 nM
4 | CARBOPLATIN |  |  |  |  |  |  |  |  |  |  |  |  |  |  |  |  |  |  | GI50 [15]: 107000 nM
5 | C=C1CC(COc2ccc3cccc(O)c3n2)(c2ccccc2)OC1=O (stereo not given) | 1860 nM | 2000 nM | 7080 nM | 1780 nM | 1510 nM | 11200 nM | 1820 nM | 3090 nM | 8510 nM | 1290 nM | 1660 nM | 1700 nM |  | 7080 nM | 2290 nM | 3.01 | 724 nM | 2140 nM | GI50 (SNB-19 [18]): 14500 nM; GI50 (RPMI-8226 [19]): 14.1 nM
6 | C=C1CC(COc2ccc3ccccc3c2)(c2ccccc2)OC1=O (stereo not given) | 1910 nM | 2880 nM | 7590 nM | 1950 nM | 4370 nM | 12000 nM | 2820 nM | 6460 nM | 12900 nM |  | 1550 nM | 3390 nM | 10500 nM | 2880 nM | 3890 nM | 1.1 | 3310 nM |  | GI50 (HOP-62 [21]): 18200 nM; GI50 (LOX IMVI [9]): 1450 nM; GI50 (RPMI-8226 [11]): 2240 nM

More lines, main results first:

Row | GI50 (SW-620) | GI50 (MDA-MB-435) | GI50 (SK-OV-3) | GI50 (COLO 205) | GI50 (ACHN) | GI50 (DU-145) | GI50 (U-251 [7]) | GI50 (PC-3) | GI50 (NCI-H322M [12]) | Molecule | GI50 (LOX IMVI [1]) | GI50 (IGROV-1) | GI50 (Malme-3M) | GI50 (SNB-19 [4]) | GI50 (TK-10) | GI50 (Hs-578T) | Ratio [8] | GI50 (SR [13]) | GI50 (HOP-62 [14]) | other results
7 | 1070 nM | 2140 nM | 9330 nM | 1510 nM | 1620 nM | 3800 nM | 2140 nM | 1580 nM |  | C=C1CC(COc2cccc3cccnc23)(c2ccccc2)OC1=O (stereo not given) | 1350 nM | 1550 nM | 1510 nM | 12000 nM | 1660 nM | 1480 nM | 2.87 |  | 5130 nM | GI50 (NCI-H322M [5]): 14800 nM; GI50 (RPMI-8226 [16]): 19.9 nM; GI50 (SR [17]): 245 nM
8 | 1480 nM | 3020 nM | 6760 nM | 2240 nM | 1580 nM | 5620 nM | 1780 nM | 2950 nM | 12000 nM | C=C1CC(COc2cccc3ccc(C)nc23)(c2ccccc2)OC1=O (stereo not given) | 1450 nM | 1780 nM | 1700 nM |  | 2090 nM | 2000 nM | 3.23 | 776 nM | 3240 nM | GI50 (SNB-19 [20]): 17000 nM; GI50 (RPMI-8226 [19]): 10 nM
